Measured values: US20250188069A1, “COMPOUNDS AND METHODS FOR DEGRADING CASEIN KINASE 1 ALPHA” (PIN THERAPEUTICS, INC., priority 2022, published 2025)
Counter-ions that a name gives are not always drawn. Like-named read-outs stand apart in the source and are kept apart here.

Columns and labels:
Type in all cases: cell-based
CK1α [1] = target: T1, CK1α (Homo sapiens, UniProt P48729+Q96SW2); assay: CK1α degradation, Jess assay in MV-4-11 cells; design: CK1α levels were determined in MV-4-11 cells using Jess (Protein Simple); host or cells: MV-4-11; dose or concentration left out as unconfirmed; conditions: MV4-11, % reduction of CK1α compared to DMSO, MV-4-11 cells for 16 hours, normalized to β-actin, read-out: CK1α degradation classification
Protocol: MM.1S and NCCIT cells were obtained from ATCC and grown in RPMI-1640 supplemented with 10% FBS. MV-4-11 cells were obtained from ATCC and grown in IMDM supplemented with 10% FBS. The cells were maintained at 37° C. under 5% CO2.
Compounds of the present disclosure was added to cells (final DMSO concentration of 0.1%) and incubated for 16 hours. CK1α levels were determined in MV-4-11 cells using Jess (Protein Simple). Briefly, whole cell lysates were prepared in lysis buffer (1×RIPA buffer [Thermo, 89900], 2 mM MgCl2 [Sigma, M1028], 0.05% Benzonase [Sigma, E1014], 1× Pierce protease inhibitor tablets EDTA-free [Thermo, A32965]). 6-20 μg of the lysates were analyzed using Jess with antibodies against CK1α (Abcam, ab108296) and β-actin (R&D Systems, MAB8929). Protein levels were normalized to β-actin levels. DC50 values were obtained using four-parameter non-linear regressions using Prism (GraphPad).
The efficacy of CK1α degradation of a part of compounds of the present disclosure was determined by treating MV-4-11 cells at […] (final DMSO concentration of 0.1%) for 16 hours. CK1α levels were determined using Jess and normalized to β-actin levels. The compounds are classified based on amount of CK1α degradation (% reduction of CK1α compared to DMSO) as follows. • A: Degradation is greater than or equal to 75%; • B: Degradation is less than […] & greater than or equal to 50%; • C: Degradation is less than […]; • ND: not determined.

MV-4-11 cells = assay: AML cell viability assay (RealTime-Glo); conditions: Homo sapiens, read-out: Cell viability classification
CK1α [2] = target: T1, CK1α; assay: CK1α HiBiT assay in CK1a_HiBiT_Jurkat cells; conditions: DC50 class, 16 hours, Nano-Glo HiBiT Lytic Detection, read-out: CK1α degradation classification
Protocol: CK1a_HiBiT_Jurkat cells were culture in RPMI 1640 medium (Gibco, 11875093) with 10% FBS under standard tissue culture conditions. Briefly, Compounds of the present disclosure was added to 30,000 cells in a white 96-well plate (9-point dose response, top concentration […], half-log serial dilution, final DMSO concentration 0.5%) and incubated for 16 hours. CK1a level was determined in along with the Nano-Glo HiBiT Lytic Detection system [Promega N3050] with final concentration of 1 x. The luminescence was normalized to that of DMSO-treated samples. DC50 values were obtained using three-parameter non-linear regressions using Prism (GraphPad). The compounds are classified based on DC50 values as follows. • A: DC50 is less than or equal to 1×10^−7; • B: DC50 is greater than 1×10^−7 & less than or equal to 1×10^−6; • C: DC50 is greater than 1×10^−6; • NA: not calculated (no activity detected, <25% viability reduction at 1 uM)

[3] = MV4-11, IC50 class, MV-4-11 cells, RealTime-Glo after 44 hrs of treatment (TABLE 1)
[4] = MV4-11, IC50 class, MV-4-11 cells, RealTime-Glo after 44 hrs of treatment (TABLE 5)

T1 sequence (P48729 whole entry): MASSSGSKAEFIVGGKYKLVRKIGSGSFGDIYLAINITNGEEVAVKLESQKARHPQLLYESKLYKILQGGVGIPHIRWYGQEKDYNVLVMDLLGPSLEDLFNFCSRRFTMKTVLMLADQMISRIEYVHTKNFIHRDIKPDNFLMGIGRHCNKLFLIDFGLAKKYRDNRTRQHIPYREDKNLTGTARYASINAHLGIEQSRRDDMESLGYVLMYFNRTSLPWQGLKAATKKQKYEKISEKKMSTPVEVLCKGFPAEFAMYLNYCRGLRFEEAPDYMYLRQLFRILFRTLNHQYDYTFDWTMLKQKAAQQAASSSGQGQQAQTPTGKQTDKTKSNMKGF
T1 sequence (Q96SW2 whole entry): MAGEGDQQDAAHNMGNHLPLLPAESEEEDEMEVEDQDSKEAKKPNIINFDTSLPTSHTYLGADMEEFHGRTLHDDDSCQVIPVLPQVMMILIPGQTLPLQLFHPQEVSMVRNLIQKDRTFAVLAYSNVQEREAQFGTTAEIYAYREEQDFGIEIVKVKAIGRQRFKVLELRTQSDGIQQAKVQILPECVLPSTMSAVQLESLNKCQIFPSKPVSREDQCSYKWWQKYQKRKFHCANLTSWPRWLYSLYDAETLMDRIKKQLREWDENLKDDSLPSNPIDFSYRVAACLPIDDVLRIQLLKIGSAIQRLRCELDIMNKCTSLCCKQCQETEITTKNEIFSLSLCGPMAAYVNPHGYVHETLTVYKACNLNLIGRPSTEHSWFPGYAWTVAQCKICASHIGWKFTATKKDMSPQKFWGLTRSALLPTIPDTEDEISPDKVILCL
T1 sequence (Q16531 whole entry partner): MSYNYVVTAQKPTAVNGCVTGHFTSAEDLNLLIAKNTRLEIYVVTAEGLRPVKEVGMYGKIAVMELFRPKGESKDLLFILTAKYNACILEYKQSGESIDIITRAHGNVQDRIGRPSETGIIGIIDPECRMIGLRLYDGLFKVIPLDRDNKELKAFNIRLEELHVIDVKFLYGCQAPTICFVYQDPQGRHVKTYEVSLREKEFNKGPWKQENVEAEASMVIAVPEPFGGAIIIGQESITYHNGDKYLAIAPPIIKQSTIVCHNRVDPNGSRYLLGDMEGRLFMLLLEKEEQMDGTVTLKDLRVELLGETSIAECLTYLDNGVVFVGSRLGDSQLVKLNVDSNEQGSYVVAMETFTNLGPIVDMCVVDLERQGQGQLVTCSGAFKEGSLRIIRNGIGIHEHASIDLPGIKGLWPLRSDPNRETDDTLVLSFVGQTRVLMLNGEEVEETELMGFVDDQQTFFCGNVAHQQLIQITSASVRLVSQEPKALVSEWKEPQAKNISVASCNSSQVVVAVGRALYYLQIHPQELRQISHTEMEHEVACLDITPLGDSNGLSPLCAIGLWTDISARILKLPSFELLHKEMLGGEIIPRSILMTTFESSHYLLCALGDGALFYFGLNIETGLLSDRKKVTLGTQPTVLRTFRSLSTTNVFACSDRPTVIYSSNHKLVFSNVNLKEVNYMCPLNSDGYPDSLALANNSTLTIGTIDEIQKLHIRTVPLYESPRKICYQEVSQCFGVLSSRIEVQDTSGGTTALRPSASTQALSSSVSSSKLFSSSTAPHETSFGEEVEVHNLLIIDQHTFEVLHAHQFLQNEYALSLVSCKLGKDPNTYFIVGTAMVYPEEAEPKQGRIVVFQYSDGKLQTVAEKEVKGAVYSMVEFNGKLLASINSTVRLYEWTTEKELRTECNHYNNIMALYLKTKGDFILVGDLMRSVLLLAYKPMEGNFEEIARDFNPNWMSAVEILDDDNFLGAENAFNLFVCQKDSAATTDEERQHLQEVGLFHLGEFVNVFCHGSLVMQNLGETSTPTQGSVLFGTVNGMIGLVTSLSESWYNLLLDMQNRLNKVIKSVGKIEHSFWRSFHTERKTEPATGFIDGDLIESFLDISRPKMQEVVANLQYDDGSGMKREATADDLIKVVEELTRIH

SMILES	Dmax (CK1α [1])	IC50 (MV-4-11 cells; [3])	DC50 (CK1α [2])	IC50 (MV-4-11 cells; [4])	IC50 (MV-4-11 cells; MV4-11, 44 h)
CCCN(CCCCN)c1cccc2c1CN(C1CCC(=O)NC1=O)C2=O (centres unmarked) [Compound 4, 3-(4-((4-aminobutyl)(propyl)amino)-1-oxoisoindolin-2-yl)piperidine-2,6-dione]	> 75%	< 100 nM			
CCCCN(CCCCN)c1cccc2c1CN(C1CCC(=O)NC1=O)C2=O (centres unmarked) [Compound 46, 3-(4-((4-aminobutyl)(butyl)amino)-1-oxoisoindolin-2-yl)piperidine-2,6-dione]	> 75%	< 100 nM			
CCCCCN(CCCCN)c1cccc2c1CN(C1CCC(=O)NC1=O)C2=O (centres unmarked) [Compound 47, 3-(4-((4-aminobutyl)(pentyl)amino)-1-oxoisoindolin-2-yl)piperidine-2,6-dione]	> 75%				< 100 nM
CCCCCCN(CCCCN)c1cccc2c1CN(C1CCC(=O)NC1=O)C2=O (centres unmarked) [Compound 48, 3-(4-((4-aminobutyl)(hexyl)amino)-1-oxoisoindolin-2-yl)piperidine-2,6-dione]	> 75%	< 100 nM			
CCCN(CCCCNC(C)=O)c1cccc2c1CN(C1CCC(=O)NC1=O)C2=O (centres unmarked) [Compound 50, N-(4-((2-(2,6-dioxopiperidin-3-yl)-1-oxoisoindolin-4-yl)(propyl)amino)butyl)acetamide]	> 75%	< 100 nM			
NCCCCN(CCCCCO)c1cccc2c1CN(C1CCC(=O)NC1=O)C2=O (centres unmarked) [Compound 51, 3-(4-((4-aminobutyl)(5-hydroxypentyl)amino)-1-oxoisoindolin-2-yl)piperidine-2,6-dione]	50 to 7500%	100 to 1000 nM			
CC(C)CCCCCN(CCCCN)c1cccc2c1CN(C1CCC(=O)NC1=O)C2=O (centres unmarked) [Compound 52, 3-(4-((4-aminobutyl)(6-methylheptyl)amino)-1-oxoisoindolin-2-yl)piperidine-2,6-dione]	> 75%	100 to 1000 nM			
NCCCCCN(CCCCN)c1cccc2c1CN(C1CCC(=O)NC1=O)C2=O (centres unmarked) [Compound 55, 3-(4-((4-aminobutyl)(5-aminopentyl)amino)-1-oxoisoindolin-2-yl)piperidine-2,6-dione dihydrochloride]	> 75%	100 to 1000 nM			
NCCCCN(CCCCCCO)c1cccc2c1CN(C1CCC(=O)NC1=O)C2=O (centres unmarked) [Compound 56, 3-(4-((4-aminobutyl)(6-hydroxyhexyl)amino)-1-oxoisoindolin-2-yl)piperidine-2,6-dione]	50 to 7500%	100 to 1000 nM			
CCCN(CCCCCN)c1cccc2c1CN(C1CCC(=O)NC1=O)C2=O (centres unmarked) [Compound 57, 3-(4-((5-aminopentyl)(propyl)amino)-1-oxoisoindolin-2-yl)piperidine-2,6-dione]	> 75%	< 100 nM			
NCCCCCCN(CCCCN)c1cccc2c1CN(C1CCC(=O)NC1=O)C2=O (centres unmarked) [Compound 60, 3-(4-((4-aminobutyl)(6-aminohexyl)amino)-1-oxoisoindolin-2-yl)piperidine-2,6-dione]	> 75%	< 100 nM			
CCCN(CCCCC(=O)NC)c1cccc2c1CN(C1CCC(=O)NC1=O)C2=O (centres unmarked) [Compound 63, 5-((2-(2,6-dioxopiperidin-3-yl)-1-oxoisoindolin-4-yl)(propyl)amino)-N-methylpentanamide]	> 75%	< 100 nM			
CCCCN(C/C=C/CN)c1cccc2c1CN(C1CCC(=O)NC1=O)C2=O (centres unmarked) [Compound 66, (E)-3-(4-((4-aminobut-2-en-1-yl)(butyl)amino)-1-oxoisoindolin-2-yl)piperidine-2,6-dione]	50 to 7500%	100 to 1000 nM			
CCCCN(C/C=C\CN)c1cccc2c1CN(C1CCC(=O)NC1=O)C2=O (centres unmarked) [Compound 67, (Z)-3-(4-((4-aminobut-2-en-1-yl)(butyl)amino)-1-oxoisoindolin-2-yl)piperidine-2,6-dione]	> 75%	< 100 nM			
C/C=C/CN(CCCCN)c1cccc2c1CN(C1CCC(=O)NC1=O)C2=O (centres unmarked) [Compound 68, (E)-3-(4-((4-aminobutyl)(but-2-en-1-yl)amino)-1-oxoisoindolin-2-yl)piperidine-2,6-dione]	> 75%	< 100 nM			
C/C=C\CN(CCCCN)c1cccc2c1CN(C1CCC(=O)NC1=O)C2=O (centres unmarked) [Compound 69, (Z)-3-(4-((4-aminobutyl)(but-2-en-1-yl)amino)-1-oxoisoindolin-2-yl)piperidine-2,6-dione]	50 to 7500%	100 to 1000 nM			
O=C1CCC(N2Cc3c(cccc3N(CCC3CC3)[C@H]3CC[C@H](N4CCOCC4)CC3)C2=O)C(=O)N1 (some centres unmarked) [Compound 674, 3-{4-[(2-cyclopropylethyl)[(1r,4r)-4-(morpholin-4-yl)cyclohexyl]amino]-1-oxo-3H-isoindol-2-yl}piperidine-2,6-dione]			≤ 100 nM	< 100 nM	

Now from value to compound, other results behind:

Dmax (CK1α [1])	IC50 (MV-4-11 cells; [3])	DC50 (CK1α [2])	IC50 (MV-4-11 cells; [4])	SMILES	IC50 (MV-4-11 cells; MV4-11, 44 h)
		≤ 100 nM	100 to 1000 nM	O=C1CCC(N2Cc3c(cccc3N(CCC3CC3)[C@H]3CC[C@H](N[C@H]4CC[C@@H]4C(F)(F)F)CC3)C2=O)C(=O)N1 (stereo partly drawn) [Compound 675, 3-{4-[(2-cyclopropylethyl)[(1r,4r)-4-{[(1S,2S)-2-(trifluoromethyl)cyclobutyl]amino}cyclohexyl]amino]-1-oxo-3H-isoindol-2-yl}piperidine-2,6-dione; bis(trifluoroacetic acid)]	
		100 to 1000 nM	100 to 1000 nM	O=C1CCC(N2Cc3c(cccc3N(CCC3CC3)C3CCC(N[C@H]4C[C@@H]4C(F)(F)F)CC3)C2=O)C(=O)N1 (stereo partly drawn) [Compound 678, 3-(4-((2-cyclopropylethyl)(4-(((1S,2S)-2-(trifluoromethyl)cyclopropyl)amino)cyclohexyl)amino)-1-oxoisoindolin-2-yl)piperidine-2,6-dione Trifluoroacetate]	
		≤ 100 nM	100 to 1000 nM	COCCN(C)[C@H]1CC[C@H](N(CCC2CC2)c2cccc3c2CN(C2CCC(=O)NC2=O)C3=O)CC1 (some centres unmarked) [Compound 680]	
		≤ 100 nM	< 100 nM	CN(CCCC(F)(F)F)[C@H]1CC[C@H](N(CCC2CC2)c2cccc3c2CN(C2CCC(=O)NC2=O)C3=O)CC1 (some centres unmarked) [Compound 681, 3-{4-[(2-cyclopropylethyl)[(1r,4r)-4-[methyl(4,4,4-trifluorobutyl)amino]cyclohexyl]amino]-1-oxo-3H-isoindol-2-yl}piperidine-2,6-dione]	
		≤ 100 nM	< 100 nM	CN(CCC(F)(F)F)[C@H]1CC[C@H](N(CCC2CC2)c2cccc3c2CN(C2CCC(=O)NC2=O)C3=O)CC1 (some centres unmarked) [Compound 682]	
		≤ 100 nM	< 100 nM	CN(CCC(F)F)[C@H]1CC[C@H](N(CCC2CC2)c2cccc3c2CN(C2CCC(=O)NC2=O)C3=O)CC1 (some centres unmarked) [Compound 683, 3-(4-((2-cyclopropylethyl)((1r,4r)-4-((3,3-difluoropropyl)(methyl)amino)cyclohexyl)amino)-1-oxoisoindolin-2-yl)piperidine-2,6-dione tris(2,2,2-trifluoroacetate)]	
		≤ 100 nM	100 to 1000 nM	O=C1CCC(N2Cc3c(cccc3N(CCC3CC3)C34CC(CNCCC(F)(F)F)(C3)C4)C2=O)C(=O)N1 (centres unmarked) [Compound 703, 3-{4-[(2-cyclopropylethyl)(3-{[(3,3,3-trifluoropropyl)amino]methyl}bicyclo[1.1.1]pentan-1-yl)amino]-1-oxo-3H-isoindol-2-yl}piperidine-2,6-dione]	
		≤ 100 nM	100 to 1000 nM	O=C1CCC(N2Cc3c(cccc3N(CCC3CC3)[C@H]3CC[C@H](N4CCC(F)(F)CC4)CC3)C2=O)C(=O)N1 (some centres unmarked) [Compound 716, 3-(4-((2-cyclopropylethyl)((1r,4r)-4-(4,4-difluoropiperidin-1-yl)cyclohexyl)amino)-1-oxoisoindolin-2-yl)piperidine-2,6-dione 2,2,2-trifluoroacetate]	
